# The supplement of paper PMC10307832
# Columns and labels:
# Test in all cases: relative viability (nuclei count vs DMSO), 5 days (fraction); higher = more cells survive
# [1] = compound: CN1CCN(CC1)C2=CC(=C(C=C2)NC3=NC(=C(S3)C(=O)C4=C(C=CC=C4Cl)Cl)N)OC [XMD14-99] + Cc1nc(NC(=O)N2CCC[C@H]2C(N)=O)sc1-c1ccnc(C(C)(C)C(F)(F)F)c1 [Alpelisib] (partner 2 µM)
# Procedure, shortened: (§1)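 Relative viability divides the nuclei count in treated wells by that in vehicle wells. Lung cancer cell lines were seeded in 1536-well plates, dosed by pin tool the next day, and fixed and stained after 5 days in one step with final 0.05% Triton X-100, 1% formaldehyde and 1 ug/ml Hoechst. Dosing was a single drug or a fixed anchor-drug dose plus five library-drug doses (not always all listed) in √10 steps, and values are medians of duplicate plates imaged at 4×.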
# [2] = compound: N[C@@H]1CCCN(c2c(/C=C3\SC(=O)NC3=O)cccc2-c2ccccc2)C1 [AZD1208] + Cc1nc(NC(=O)N2CCC[C@H]2C(N)=O)sc1-c1ccnc(C(C)(C)C(F)(F)F)c1 [Alpelisib] (partner 2 µM)
# Procedure, shortened: as §1
# [3] = compound: CN1CCN(CC1)C2=CC(=C(C=C2)NC3=NC(=C(S3)C(=O)C4=C(C=CC=C4Cl)Cl)N)OC [XMD14-99] + Nc1ncn([C@H]2C[C@H](O)[C@@H](CO)O2)c(=O)n1 [Decitabine] (partner 2 µM)
# Procedure, shortened: as §1
# [4] = compound: N[C@@H]1CCCN(c2c(/C=C3\SC(=O)NC3=O)cccc2-c2ccccc2)C1 [AZD1208] + CS(=O)(=O)CCNCc1ccc(-c2ccc3ncnc(Nc4ccc(OCc5cccc(F)c5)c(Cl)c4)c3c2)o1 [Lapatinib] (partner 2 µM)
# Procedure, shortened: as §1
Cell Line,relative viability ([1]; first compound 0.08 µM),relative viability ([1]; first compound 0.8 µM),relative viability ([1]; first compound 2.53 µM),relative viability ([1]; first compound 8 µM),relative viability ([2]; first compound 0.08 µM),relative viability ([2]; first compound 0.253 µM),relative viability ([2]; first compound 0.8 µM),relative viability ([2]; first compound 2.53 µM),relative viability ([2]; first compound 8 µM),relative viability ([3]; first compound 0.08 µM),relative viability ([3]; first compound 0.8 µM),relative viability ([3]; first compound 2.53 µM),relative viability ([3]; first compound 8 µM),relative viability ([4]; first compound 0.08 µM),relative viability ([4]; first compound 0.253 µM),relative viability ([4]; first compound 0.8 µM),relative viability ([4]; first compound 2.53 µM),relative viability ([4]; first compound 8 µM)
NCI-H1793,0.77,0.641,0.666,0.476,0.639,0.778,0.664,0.507,0.498,0.502,0.521,0.473,0.427,0.563,0.982,0.629,0.678,0.58
NCI-H1915,1.09,0.984,0.955,0.925,1.05,1.09,1.05,1.03,1.03,0.25,0.255,0.263,0.259,0.985,1.08,1.02,0.962,0.977
NCI-H1944,0.902,0.867,0.805,0.755,0.864,0.762,0.715,0.726,0.6,0.48,0.458,0.414,0.372,0.8,0.788,0.708,0.712,0.484
NCI-H1975,0.715,0.605,0.553,0.378,0.603,0.64,0.617,0.63,0.607,0.495,0.412,0.449,0.317,0.916,1.1,0.838,0.893,1.07
NCI-H1993,0.63,0.731,0.601,0.59,–,0.608,0.683,0.737,0.63,0.561,0.603,0.587,0.622,–,0.749,0.689,0.794,0.75
NCI-H2009,1.14,1.13,1.13,0.968,1.13,1.17,1.07,1.13,1.13,0.342,0.343,0.378,0.371,0.982,1.21,0.817,0.742,0.893
NCI-H2023,0.614,0.527,0.646,0.534,0.512,0.448,0.396,0.461,0.45,0.222,0.212,0.228,0.166,0.757,0.903,0.68,0.668,0.635
NCI-H2085,0.92,0.866,0.889,0.728,0.921,0.979,0.885,1.02,1.03,0.561,0.529,0.523,0.45,0.768,0.862,0.7,0.687,0.726
NCI-H2087,1.03,0.801,0.827,0.549,1.04,1.03,1.09,1.13,0.963,0.282,0.264,0.234,0.192,1.11,1.32,1.13,1.47,0.9
NCI-H2126,0.745,0.75,0.723,0.647,0.703,0.724,0.652,0.642,0.624,0.629,0.537,0.611,0.503,0.796,0.689,0.63,0.691,0.525
NCI-H2170,0.771,0.762,0.854,0.734,0.747,0.8,0.707,0.567,0.52,0.49,0.423,0.444,0.395,0.263,0.257,0.257,0.265,0.299
NCI-H2347,0.995,0.984,0.958,0.572,1.01,0.936,1.07,0.904,0.96,0.584,0.623,0.577,0.522,1.09,1.11,0.896,0.843,0.97
NCI-H2405,0.792,0.895,0.809,0.416,0.692,0.727,0.637,0.728,0.723,0.704,0.749,0.628,0.648,1.12,1.05,0.984,1.04,0.841
NCI-H3122,0.76,0.741,0.542,0.319,0.686,0.68,0.647,0.583,0.722,0.405,0.359,0.333,0.283,1.08,0.984,1,1.05,1.15
PC-3 [JPC-3],1.06,0.947,0.916,0.893,1.07,1.07,1,1.1,0.946,0.75,0.88,0.797,0.774,0.424,0.412,0.451,0.413,0.389
PC-14,0.813,0.921,0.901,0.73,0.928,1,0.956,0.917,0.931,0.26,0.238,0.201,0.142,0.298,0.417,0.295,0.327,0.317
RERF-LC-KJ,0.718,0.917,0.75,0.588,0.708,0.762,0.703,0.652,0.607,0.737,0.674,0.665,0.506,0.819,0.896,0.698,0.679,0.562
SK-LU-1,0.893,0.96,0.996,0.598,0.792,0.913,0.979,0.9,0.76,0.606,0.707,0.666,0.412,0.802,0.864,0.826,0.831,0.839
